From patent publication US20260297134A1, “CYCLIC PEPTIDES AS PET IMAGING AGENTS OF GRANZYME B” (Merck Sharp & Dohme LLC, priority 2023, published 2026)
Bridge positions count the residues as written; N and C are the ends. Square brackets hold non-standard residues; d marks the D form. Peptide text beside a SMILES is read from it. * marks the point of attachment. X1 = O=C(O)CN1CCN(CC(=O)O)CC(Cc2ccc(NC(=S)*)cc2)N(CC(=O)O)CC1; NMeF = CN[C@@H](Cc1ccccc1)C(=O)O

Key:
Human granzyme B = Human granzyme B (Homo sapiens, UniProt P10144); assay: Granzyme B Biochemical Inhibition Assay; conditions: granzyme B 8 nM; 30 min preincubation, room temperature
Description: Compounds to be tested as inhibitors were manually prepared in a 2-fold serial dilutions in DMSO, spanning 200 μM to 0.39 μM in a Labcyte Echo qualified low dead volume 384-well plate. Then an ECHO acoustic liquid handler was used to dispense 125 nL of each compound from 384-well plate into a PerkinElmer Proxiplate-384 Plus F assay plate. For the positive control of inhibitor, (S)-3-((3S,6S)-3-((2S,3S)-2-acetamido-3-methylpentanamido)-4-oxo-1,2,3,4,6,7-hexahydroazepino[3,2,1-hi]indole-6-carboxamido)-4-oxobutanoic acid (see C. A. Willoughby et al./Bioorg. Med. Chem. Lett. 12 (2002) 2197-2200 2199) was used at 2 μM assay concentration. For no inhibition control, DMSO was used. Each compound was run in duplicate.
Once the compounds were dispensed in the plates, enzyme mix and substrate mix were prepared. […] Subsequently, 3.125 μL of substrate mix were added to each well using the BioRaptr, reaching a final assay volume of 12.5 μL. and the plate was monitored using a Pherastar FS by 1 read per minute for 30 minutes in fluorescence mode, excitation wavelength is 400 nm and emission wavelength is 510 nm.
The data analysis was performed first in excel, where the slopes of the measured fluorescence from each sample were determined using MARS software from BMG LABTECH. […]

[1] = biological target: human Granzyme B (hGranzyme B) (Homo sapiens, UniProt P10144); assay: Surface Plasmon Resonance (SPR) binding to human Granzyme B; conditions: Table 8, 25° C.
Description: All reagents and solvents were purchased from commercial sources and used “as is” unless otherwise noted. Reaction progress and synthetic intermediate analysis were assessed by LCMS (UV detection with ESI, APCI, or other mass detection) when applicable using a MeCN/water gradient with either TFA, formic acid, or NH4HCO3 modifier. Silica gel and reverse-phase flash column chromatography were conducted with commercially available pre-packed columns. Reverse-phase preparative HPLC purification was performed on preparative HPLC instruments with UV and MS detection using a MeCN/water gradient with either TFA, formic acid, or NH4OH modifier. Unless otherwise noted, all KD data presented in tables refers to the surface plasmon resonance assay that is described in the Biological Assay section.
The kinetics of test peptide binding to human Granzyme B (hGranzyme B) was determined by SPR. All experiments were performed at 25° C. using the Biacore 8k+ instrument (Cytiva, Marlborough, MA). The Biacore 8k+ Insight Evaluation Software Version 3.0 was used to fit the data with a 1:1 binding model to determine the association rate constant ka (M^−1s^−1, where “M” equals molar and “s” equals seconds) and the dissociation rate constant kd (s^−1). These rate constants were used to calculate the equilibrium dissociation constant, KD (M)=kd/ka. To measure the binding kinetics of peptides of interest, surfaces were prepared by a capture method to a Series S Streptavidin (SA) chip using a 1×HBS-EP+ running buffer (Cytiva). hGranzyme B was diluted to 10 μg/mL in 1×HBS-EP+ and flowed over spot 2 of each flow cell on the chip at a flow rate of 10 μl/min for 20 s to achieve a level of capture of ~1100 RU. An unmodified spot 1 of each flow cell was used as a matrix binding control or reference surface. Binding kinetics were measured using single cycle kinetics at 25° C. by injecting 5 concentrations with 3-fold serial dilutions of test peptides from […] to 1 μM. Compound dilutions were performed manually in a running buffer containing 1×HBS-EP+(Cytiva), and a final concentration of 2% DMSO. The interaction analyses over hGranzyme B, were performed using a 120 s association time and a 900 s dissociation time. All experiments were conducted at a flow rate of […] with a data collection rate of 10 Hz.
Peptide dilution series included 2 zero concentration points (no compound) which were averaged and subtracted from the peptide concentration injection as DMSO control responses. Binding data acquired from the reference surface (matrix binding control) were subtracted from the binding data for hGranzyme B surface on the chip to determine specific binding. Next, the association phase data were solvent corrected to account for any signal fluctuation throughout the experiment due to subtle DMSO concentration differences. Corrected response data were analyzed using the Biacore 8k+ Evaluation Software Version 3.0 according to the manufacturer. SPR data for representative compounds of the disclosure are found in Table 8.

[2] = Dynamic PET/CT scan in healthy rhesus monkey, biodistribution and clearance; format: in vivo, male rhesus monkey; conditions: i.v.
Description: Healthy non-human primate: A 3 h dynamic PET/CT scan was performed in a healthy male rhesus monkey to determine whole body biodistribution and clearance properties in an additional species. Approximately 6 mCi of ^18F-labeled anti-granzyme-B peptide was intravenously injected in the animal. Attenuation correction was performed using low-dose CT scan. Regions of interests (ROI) were manually drawn over tissues of interest to determine mean standardized uptake value (SUVmean).

Human granzyme B, sequence (P10144 21-247): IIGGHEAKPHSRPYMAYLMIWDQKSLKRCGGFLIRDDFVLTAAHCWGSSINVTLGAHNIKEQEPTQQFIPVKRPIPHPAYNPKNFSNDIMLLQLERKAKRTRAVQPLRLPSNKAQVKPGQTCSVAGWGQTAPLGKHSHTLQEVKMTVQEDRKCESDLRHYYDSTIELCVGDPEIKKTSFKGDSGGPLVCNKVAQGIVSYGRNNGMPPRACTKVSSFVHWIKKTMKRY
human Granzyme B (hGranzyme B), sequence (P10144 21-247): as above

SMILES | IC50 (Human granzyme B) | Kd [1] | excretion route ([2]; PET images) | blood pool clearance ([2]; approximately 6 mCi, PET) | liver uptake duration ([2]; quantitative analyses of PET images) | uptake in liver and kidneys ([2]; within first 20 minutes of injection)
CC(C)[C@@H]1NC(=O)[C@H](CC(=O)O)NC(=O)[C@H](Cc2ccc(O)cc2)NC(=O)[C@H](Cc2ccc(O)cc2)NC(=O)[C@H](Cc2ccccc2)N(C)C(=O)[C@H](Cc2ccccc2)N(C)C(=O)[C@H](Cc2ccccc2)NC(=O)CSC[C@@H](C(=O)NCC(N)=O)NC(=O)[C@H](Cc2c[nH]cn2)NC(=O)[C@H](Cc2ccccc2)N(C)C(=O)[C@H](Cc2ccc(O)cc2)NC(=O)[C@H](C(C)C)NC(=O)[C@H](CC(=O)O)NC(=O)[C@H](C(C)C)NC(=O)[C@H](CC(=O)O)NC1=O [Compound 1a, *F.NMeF.NMeF.Y.Y.D.V.D.V.D.V.Y.NMeF.H.*C.G-NH2] ({CH2CO}-F[NMeF][NMeF]YYDVDVDVY[NMeF]HCG-NH2; thioether N-15) | 113 nM | 0.5 nM | – | – | – | –
CC(C)[C@@H]1NC(=O)[C@H](CC(=O)O)NC(=O)[C@H](Cc2ccc(O)cc2)NC(=O)[C@H](Cc2ccc(O)cc2)NC(=O)[C@H](Cc2ccccc2)N(C)C(=O)[C@H](Cc2ccccc2)N(C)C(=O)[C@H](Cc2ccccc2)NC(=O)CSC[C@@H](C(=O)NCC(=O)NCC(=O)N[C@@H](CCCCNC(=S)Nc2ccc(CC3CN(CC(=O)O)CCN(CC(=O)O)CCN3CC(=O)O)cc2)C(N)=O)NC(=O)[C@H](Cc2c[nH]cn2)NC(=O)[C@H](Cc2ccccc2)N(C)C(=O)[C@H](Cc2ccc(O)cc2)NC(=O)[C@H](C(C)C)NC(=O)[C@H](CC(=O)O)NC(=O)[C@H](C(C)C)NC(=O)[C@H](CC(=O)O)NC1=O (stereo partly drawn) [Compound 6a, *F.NMeF.NMeF.Y.Y.D.V.D.V.D.V.Y.NMeF.H.*C.G.G.K(^18F-AlF-NOTA)-NH2] ({CH2CO}-F[NMeF][NMeF]YYDVDVDVY[NMeF]HCGGK(X1)-NH2; thioether N-15) | – | – | primarily excreted through renal route | rapid blood pool clearance | prolonged liver uptake | high uptake in liver and kidneys within first 20 minutes of injection
